This test relates to A549 (EGFR^WT) cells. Put plainly: MTT cell viability inhibition assay, A549 cells. The test is classed as cell-based. Conditions: Homo sapiens, A549, 72 h, read-out: IC50 (μM) A549 (EGFR^WT).

As a reminder, the IC50 is the midpoint of a concentration-inhibition curve. For the compound `C=CC(=O)Nc1cc(Nc2nccc(-c3cn(C)c4ccccc34)n2)c(OC)cc1N(C)CCN(C)C` [Osimertinib, osimertinib], the IC50 came to 0.6864 ± 0.0045 µM.

Source of the values: paper PMC10923520 (Science Advances, 2024).
